Measurements as given in PubChem BioAssay AID248 (DTP/NCI, 2004).
Toxic doses and inconclusive results are not listed. Cut-off read from the data, not from the text of the source: active = T/C of 150% or more; inactive = T/C below 125%.

Tested on: L1210 leukemia ip in BDF1 mice, survival T/C
Assay: NCI In Vivo Anticancer Drug Screen. Data for tumor model L1210 Leukemia (intraperitoneal) in B6D2F1 (BDF1) mice
Details: endpoint: mean survival time, higher = longer survival
Method in brief: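 Ratio derived from survival: compound-dosed mice over vehicle-dosed mice, all bearing a transplantable tumor.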

[1] = dose: 100.0 mg/kg/injection, schedule: Q01DX001 (ip), vehicle: saline
[2] = dose: 200.0 mg/kg/injection, schedule: Q01DX001 (ip), vehicle: saline
[3] = dose: 400.0 mg/kg/injection, schedule: Q01DX001 (ip), vehicle: saline
[4] = dose: 100.0 mg/kg/injection, schedule: Q01DX009 (ip), vehicle: saline with Tween-80
[5] = dose: 200.0 mg/kg/injection, schedule: Q01DX009 (ip), vehicle: saline with Tween-80
[6] = dose: 100.0 mg/kg/injection, schedule: Q04DX003 (ip), vehicle: saline
[7] = dose: 100.0 mg/kg/injection, schedule: Q04DX003 (ip), vehicle: water
[8] = dose: 25.0 mg/kg/injection, schedule: Q01DX009 (ip), vehicle: saline
[9] = dose: 50.0 mg/kg/injection, schedule: Q01DX009 (ip), vehicle: saline
[10] = dose: 12.5 mg/kg/injection, schedule: Q04DX003 (ip), vehicle: saline

Measured: T/C

COc1ccc(C(N)C(=O)O)cc1 (stereo not given)
inactive: dose: 50.0 mg/kg/injection, schedule: Q01DX001 (ip), vehicle: saline 94 % of control | dose: 75.0 mg/kg/injection, schedule: Q01DX009 (ip), vehicle: Klucel (hydroxypropylcellulose) (HPC) 110 % of control | dose: 100.0 mg/kg/injection, schedule: Q01DX001 (ip), vehicle: Klucel (hydroxypropylcellulose) (HPC) 96 % of control | [1] 94 % of control | dose: 150.0 mg/kg/injection, schedule: Q01DX009 (ip), vehicle: Klucel (hydroxypropylcellulose) (HPC) 113 % of control | dose: 200.0 mg/kg/injection, schedule: Q01DX001 (ip), vehicle: Klucel (hydroxypropylcellulose) (HPC) 97 % of control | [2] 96 % of control | dose: 300.0 mg/kg/injection, schedule: Q01DX009 (ip), vehicle: Klucel (hydroxypropylcellulose) (HPC) 101 % of control | dose: 400.0 mg/kg/injection, schedule: Q01DX001 (ip), vehicle: Klucel (hydroxypropylcellulose) (HPC) 92 % of control | [3] 96 % of control

CC(=O)COc1ccccc1-c1ccccc1
inactive: [4] 97 % of control | [5] 101 % of control | dose: 400.0 mg/kg/injection, schedule: Q01DX009 (ip), vehicle: saline with Tween-80 100 % of control

O=C(O)c1cccc(C(=O)c2ccc([N+](=O)[O-])cc2)c1
inactive: [1] 97 % of control | [6] 90 % of control | [2] 99 % of control | dose: 200.0 mg/kg/injection, schedule: Q04DX003 (ip), vehicle: saline 102 % of control | [3] 96 % of control | dose: 400.0 mg/kg/injection, schedule: Q04DX003 (ip), vehicle: saline 90 % of control

CCC([NH-])=O.CCC([NH-])=O.[Pt+2]
inactive: dose: 100.0 mg/kg/injection, schedule: Q01DX009 (ip), vehicle: water 107 % of control | [7] 101 % of control | dose: 200.0 mg/kg/injection, schedule: Q01DX009 (ip), vehicle: water 106 % of control | dose: 200.0 mg/kg/injection, schedule: Q04DX003 (ip), vehicle: water 108 % of control | dose: 400.0 mg/kg/injection, schedule: Q04DX003 (ip), vehicle: water 110 % of control

CCSc1ncc2cnccn12
inactive: dose: 25.0 mg/kg/injection, schedule: Q01DX009 (ip), vehicle: water 91 % of control | dose: 50.0 mg/kg/injection, schedule: Q01DX009 (ip), vehicle: water 100 % of control | [7] 91 % of control

Cc1c(Cl)cccc1NC(=O)CCl
inactive: [4] 97 % of control | [5] 103 % of control

CCN(CC)CC(=O)NCC(CCN1CCCCC1)(CCN1CCCCC1)c1cccc2ccccc12
inactive: [8] 96 % of control | [9] 104 % of control | [6] 110 % of control

CC(CN1CCN(CCOCCO)CC1)CN1c2ccccc2Sc2ccc(Cl)cc21 (stereo not given)
inactive: dose: 0.09 mg/kg/injection, schedule: Q01DX009 (ip), vehicle: saline 114 % of control | dose: 0.39 mg/kg/injection, schedule: Q01DX009 (ip), vehicle: saline 94 % of control | dose: 0.78 mg/kg/injection, schedule: Q01DX009 (ip), vehicle: saline 96 % of control | dose: 0.78 mg/kg/injection, schedule: Q04DX003 (ip), vehicle: saline 108 % of control | dose: 1.56 mg/kg/injection, schedule: Q01DX009 (ip), vehicle: saline 114 % of control | dose: 1.56 mg/kg/injection, schedule: Q04DX003 (ip), vehicle: saline 110 % of control | dose: 3.12 mg/kg/injection, schedule: Q04DX003 (ip), vehicle: saline 106 % of control | dose: 6.25 mg/kg/injection, schedule: Q04DX003 (ip), vehicle: saline 105 % of control | [10] 111 % of control

NC1=NC(=O)/C(=C/c2ccccc2)S1
inactive: dose: 100.0 mg/kg/injection, schedule: Q01DX001 (ip), vehicle: carboxymethylcellulose (CMC) 100 % of control | [4] 90 % of control | dose: 200.0 mg/kg/injection, schedule: Q01DX001 (ip), vehicle: carboxymethylcellulose (CMC) 89 % of control | [5] 91 % of control | dose: 400.0 mg/kg/injection, schedule: Q01DX001 (ip), vehicle: carboxymethylcellulose (CMC) 86 % of control

CC(CCc1ccccc1)NC(C)C(O)c1ccc(O)cc1 (stereo not given)
inactive: dose: 6.25 mg/kg/injection, schedule: Q01DX009 (ip), vehicle: saline 101 % of control | dose: 12.5 mg/kg/injection, schedule: Q01DX009 (ip), vehicle: saline 104 % of control | [10] 94 % of control | [8] 98 % of control | dose: 25.0 mg/kg/injection, schedule: Q04DX003 (ip), vehicle: saline 102 % of control | [9] 97 % of control | dose: 50.0 mg/kg/injection, schedule: Q04DX003 (ip), vehicle: saline 94 % of control | dose: 100.0 mg/kg/injection, schedule: Q01DX009 (ip), vehicle: saline 97 % of control | [6] 89 % of control
